From paper PMC6401853, “Fabrication of Carbohydrate Chips Based on Polydopamine for Real-Time Determination of Carbohydrate–Lectin Interactions by QCM Biosensor” (Polymers, 2018)

Molecular target: wheat germ agglutinin (WGA)
Assay: QCM biosensor kinetics, lectin over immobilized amino-GlcNAc derivative on polydopamine chip, […] fit
Assay type: binding

In the case of CC(=O)N[C@H]1C(O)O[C@H](CO)[C@@H](O)[C@@H]1O (stereo partly shown) [N-Acetylglucosamine], the Kd is reported as 47.2 nM.
